One assay addresses T1, BCL-xL (Homo sapiens, UniProt Q07817).
T1 construct: endogenous in cells; host or cells: Jurkat (ATCC TIB-152)
Put plainly: Immunoblot degradation of BCL-xL in Jurkat cells. The assay is classed as cell-based. Particulars: for DC50: 16 h treatment, immunoblot. The procedure:
The data are presented as mean ± s.d. from three replicate cell cultures in a representative experiment for Jurkat cells. h Left, WH244 induces polyubiquitination of WT, K22R BCL-2 and to some extent K17R but not K17/22R BCL-2 in 293T cells. 293T cells were co-transfected as indicated with Flag-BCL−2 WT or mutants and HA-tagged ubiquitin (HA-Ub) plasmids. After 36 h, cells were pretreated with MG132 (10 µM) for 2 h and then treated with or without WH244 (1 μM) for 5 h. The Flag-tagged proteins were immunoprecipitated (IP) and immunoblotted with HA or Flag antibody. Right, The input blot for this assay. Data are a representative of two independent experiments. Source data are provided as Source Data file.
Cells were collected, washed once with ice-cold phosphate-buffered saline, pH 7.2 (PBS, cat. no. 20012027; Thermo Fisher Scientific) and lysed in RIPA lysis buffer (Cat. No. BP-115DG, Boston Bio Products, Ashland, MA, USA) supplemented with protease and phosphatase inhibitor cocktails (Cat. No. PPC1010, Sigma-Aldrich, St. Louis, MO, USA) through sonication. The samples were centrifuged at 15,000 × g for 5 min and the supernatants were transferred into a new tube. The protein concentration in the supernatants was determined using the Pierce BCA protein Assay kit (cat. no. 23225, Thermo Fisher Scientific). The protein concentration was normalized, and the samples were reduced in 4× Laemmli’s SDS-sample buffer (cat. no. BP-110R, Boston Bio Products) and denatured at 95 °C for 5 min. An equal amount of protein samples (20–40 μg per lane) were resolved using precast 4–20% Tris-glycine gels (Mini-PROTEAN TGX, cat. no. 456–1094, Bio-Rad), and resolved proteins were transferred onto 0.2-μm pore size polyvinylidene difluoride (PVDF) blotting membranes (cat. no. LC2002, Thermo Fisher Scientific) using mini trans-blot electrophoretic transfer cell (Bio-Rad). The membranes were blocked with non-fat dry milk (5% wt/vol) in 1×Tris- buffered saline-Tween-20 (TBST) for 1 h at room temperature, and were subsequently probed with primary antibodies at a pre-determined optimal concentration in non-fat dry milk (5% wt/vol in TBST) overnight at 4 °C. The membranes were washed three times (15 min each) in TBST and then incubated with horse radish peroxidase (HRP)-conjugated secondary antibodies for 1 h at room temperature. Following sufficient washing with TBST, the membranes were exposed with ECL Western Blotting Substrate (Bio-Rad), and the signal was detected using the ChemiDoc MP Imaging System (Bio-Rad) and quantified using the ImageJ (v1.53a) software from NIH. Antibodies were purchased from Cell Signaling Technologies (CST) and the dilutions are as follows: BCL-xL (Cat. No. 2762S, 1:1000) and BCL-2 (Cat. No. 2870S, 1:1000). β-actin antibody was purchased from MP Biomedicals (Cat. No. 8691001, 1:20,000).

The subject of the next assay is Jurkat cells. Put plainly: Viability (MTS) assay in Jurkat cells. The assay is classed as cell-based, human. The conditions noted are these: 72 h. The procedure: For the viability assays in Jurkat cells, the cells in complete cell culture medium were seeded in 96-well plates (100 µl per well) at the optimized densities (50,000 cells). Compound treatments were prepared in complete cell culture medium and 100 µl of 2× treatment-containing medium were added to each well. Complete cell culture medium without treatment was added in control wells, and wells containing medium without cells served as background. The outer wells of the 96-well plate were not used for treatment and were filled with 250 µl of PBS to reduce evaporation of medium from inner wells. Each compound and/or combination was tested at nine different concentrations with three replicates. The cell viability was measured after 72 h by tetrazolium-based MTS assay. […] The cells were incubated for 4 h at 37 °C and 5% CO2, and then the absorbance was recorded at 490 nm using Biotek’s Synergy Neo2 multimode plate reader (Biotek). The average absorbance value of background wells was subtracted from absorbance value of each control and treatment well, and percent cell viability ((At/A0) × 100) was determined in each treatment well, where At is the absorbance value of the treatment well and A0 is the average absorbance value of control wells after background subtraction. […]

Another assay deals with T2, BCL-2 R110A E114A (Homo sapiens, UniProt P10415, E114A/R110A).
T2 construct: BCL-xL (aa 2-212) and BCL-2 (aa 1-207) transformed cells were grown in LB broth; made in house; host or cells: E. coli BL21 (DE3) codon plus
T2 sequence (P10415 1-207 R110A/E114A): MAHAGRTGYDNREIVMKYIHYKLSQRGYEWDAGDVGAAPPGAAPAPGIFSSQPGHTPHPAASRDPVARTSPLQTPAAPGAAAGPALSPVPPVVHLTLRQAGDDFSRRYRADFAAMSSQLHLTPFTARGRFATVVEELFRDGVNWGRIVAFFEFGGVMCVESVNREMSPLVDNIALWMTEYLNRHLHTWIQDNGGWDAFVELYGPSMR
Put plainly: AlphaScreen binary binding, BCL-2 R110A E114A. The conditions noted are these: mean ± s.d., n=3. The procedure:
To test the binary/ternary binding affinities of compounds to BCL-2/BCL-xL, AlphaScreen displacement binding assay was performed to test the capabilities of testing compounds to displace a Biotin-tagged Bim (Biotin-[…]) or Bad (Biotin-[…]) from BCL-2 or BCL-xL for BCL-2 and BCL-xL binding affinities, respectively. All reagents were diluted in assay buffer of 25 mM HEPES, pH 7.5, 150 mM NaCl, 0.1% BSA, and 0.005% tween 20 prior incubation. To a 96-well PCR plate (VWR, Cat. No. 82006-636) was added 10 μL Biotin-tagged Bim (15 nM for WT or 50 nM for mutants) or Bad (15 nM for WT or 50 nM for mutants), 10 μL series diluted compounds solution (2 or 3 or 4× dilution), and 10 μL self-made 6×His tagged BCL-2 WT or mutants (25 nM WT or 50 nM mutants) or 10 μL self-made BCL-xL WT and mutants (10 nM WT or 50 nM mutants). […] The luminescence signal was detected on a Biotek’s Synergy Neo2 multimode plate reader installed with an AphaScreen filter cube. The Ki values of each compounds were calculated by fitting data into the “Binding-competitive, One site-Fit Ki” function in GraphPad Prism (9.2.0) based on concentrations of Biotin–peptide used and experimentally determined Kd values of each 6×His protein &&&and Biotin–Peptide pair.

T1 sequence (Q07817 whole entry): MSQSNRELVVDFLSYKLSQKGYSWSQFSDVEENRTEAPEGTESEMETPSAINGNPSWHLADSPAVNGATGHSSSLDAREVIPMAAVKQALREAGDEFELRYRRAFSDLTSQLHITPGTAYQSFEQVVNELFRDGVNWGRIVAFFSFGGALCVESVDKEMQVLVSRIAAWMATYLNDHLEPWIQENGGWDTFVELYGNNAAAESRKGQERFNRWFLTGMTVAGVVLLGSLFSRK

Turning to `Cc1ncsc1-c1ccc([C@H](C)NC(=O)[C@@H]2C[C@@H](O)CN2C(=O)[C@@H](NC(=O)CN2CCN(CC(=O)N3CCN(C[C@]4(C)CCC(c5ccc(Cl)cc5)=C(CN5CCN(c6ccc(C(=O)NS(=O)(=O)c7ccc(N[C@H](CCN8C[C@@H]9C[C@H]8CO9)CSc8ccccc8)c(S(=O)(=O)C(F)(F)F)c7)cc6)CC5)C4)CC3)CC2)C(C)(C)C)cc1` [WH244], at BCL-xL (0.1 μM WH244, Jurkat cells), the “Earliest time at which BCL-xL degradation is seen” value is 1 h and the “Time to nearly complete degradation of BCL-xL” value came to 4 h. Further, the “Time for BCL-xL level to recover to pretreatment level after removal of degrader” value on BCL-xL (0.1 μM WH244 for 16 h, then fresh medium, Jurkat cells) lay within 24 to 48 h. Also, the “DC50 fold better than 753b (BCL-xL)” value on BCL-xL (Jurkat cells, 16 h) is reported as ~ 6.2 fold. At BCL-xL (Jurkat cells), the DC50 is 0.6 nM. The “Potency in killing Jurkat cells (comparison)” value in the assay with Jurkat cells was “outperformed 753b, DT2216, and ABT263”. The Ki on BCL-2 R110A E114A was 5.8 ± 0.6 nM.
In the case of `Cc1ncsc1-c1ccc(C(C)NC(=O)C2CC(O)CN2C(=O)C(NC(=O)CCCCCCC(=O)N2CCN(CC3(C)CCC(c4ccc(Cl)cc4)=C(CN4CCN(c5ccc(C(=O)NS(=O)(=O)c6ccc(NC(CCN7CCOCC7)CSc7ccccc7)c(S(=O)(=O)C(F)(F)F)c6)cc5)CC4)C3)CC2)C(C)(C)C)cc1` (centres unmarked) [753b], half-maximal degradation at BCL-xL (Jurkat cells) (DC50) was put at 3.7 nM.

(Values after PMC10979003, “Development and crystal structures of a potent second-generation dual degrader of BCL-2 and BCL-xL” (Nature Communications, 2024).)
